Here are results for 13 compounds from patent US11702427B2 (priority 2018, dated 2023).

In general, EC50 refers to the midpoint of the concentration-response curve.

Each structure is given as a SMILES string.

The experiment concerns HBsAg. In words: HBsAg assay: inhibition of HBsAg in HepG2.2.15 cells (CLIA immunoassay of supernatant). In kind it is cell-based, hepatitis B virus (HBV). Particulars: Hepatitis B virus, HepG2.2.15, 144 h, read-out: sAg EC50, HepG2.2.15 cells; supernatant collected at day 6 after exposure; HBsAg chemiluminescence immunoassay. An outline of the steps:
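HepG2.2.15 cells (30,000/well) exposed to serially diluted compound (0.5% DMSO) for 2–3 days, then re-dosed in fresh medium for 3–4 more days. On day 6, supernatant HBsAg quantified by chemiluminescence immunoassay; EC50 from dose-response curves. Viability measured separately by CellTiter-Glo.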
For `COCCCOc1cc2c(cc1CCOC)-c1[nH]c(=O)c(C(=O)O)c(O)c1[C@H](C(C)C)CO2` [Example 72, (S)-4-Hydroxy-5-isopropyl-10-(2-methoxyethyl)-9-(3-methoxypropoxy)-2-oxo-1,2,5,6-tetrahydrobenzo[2,3]oxepino[4,5-b]pyridine-3-carboxylic acid], the EC50 worked out at 600 nM.

`COCCCOc1cc2c(cc1OC)-c1[nH]c(=O)c(C(=O)O)cc1C1(CCCCC1)C2` [Example 73, 9-Methoxy-8-(3-methoxypropoxy)-2-oxo-2,6-dihydro-1H-spiro[benzo[h]quinoline-5,1′-cyclohexane]-3-carboxylic acid]: the EC50 is 110 nM.

Take `COCCCOc1cc2c(nc1Cl)-c1[nH]c(=O)c(C(=O)O)c(O)c1C(C(C)C)CO2` (stereo not shown) [Example 74, 2-Chloro-8-hydroxy-7-isopropyl-3-(3-methoxypropoxy)-10-oxo-6,7,10,11-tetrahydrooxepino[3,2-b:4,5-b′]dipyridine-9-carboxylic acid]: the EC50 worked out at 40 nM.

Take `COCCCOc1cc2c(nc1C1CCOCC1)-c1[nH]c(=O)c(C(=O)O)c(O)c1C(C(C)C)CO2` (stereo not shown) [Example 79, 8-Hydroxy-7-isopropyl-3-(3-methoxypropoxy)-10-oxo-2-(tetrahydro-2H-pyran-4-yl)-6,7,10,11-tetrahydrooxepino[3,2-b:4,5-b′]dipyridine-9-carboxylic acid]: the EC50 was 5000 nM.

As for `COCCCOc1cc2c(nc1CCOC)-c1[nH]c(=O)c(C(=O)O)c(O)c1C(C(C)C)CO2` (stereo not shown) [Example 84, 8-Hydroxy-7-isopropyl-2-(2-methoxyethyl)-3-(3-methoxypropoxy)-10-oxo-6,7,10,11-tetrahydrooxepino[3,2-b:4,5-b′]dipyridine-9-carboxylic acid], the 50% effective concentration (EC50) worked out at 1200 nM.

Regarding `COCCCOc1cc2c(cc1OC)-c1[nH]c(=O)c(C(=O)O)c(OC)c1C(C(C)C)C2` (stereo not shown) [Example 87, 5-Isopropyl-4,9-dimethoxy-8-(3-methoxypropoxy)-2-oxo-1,2,5,6-tetrahydrobenzo[h]quinoline-3-carboxylicacid], the EC50 amounted to 85 nM.

Turning to `COCCCOc1cc2c(cc1OC)-c1[nH]c(=O)c(C(=O)O)c(OCCOC)c1C(C(C)C)C2` (stereo not shown) [Example 88, 5-Isopropyl-9-methoxy-4-(2-methoxyethoxy)-8-(3-methoxypropoxy)-2-oxo-1,2,5,6-tetrahydrobenzo[h]quinoline-3-carboxylic acid], the EC50 was 4700 nM.

Consider `COCCCOc1cc2c(cc1OC)-c1[nH]c(=O)c(C(=O)O)c(OCCN(C)C)c1C(C(C)C)C2` (stereo not shown) [Example 89, 4-(2-(Dimethylamino)ethoxy)-5-isopropyl-9-methoxy-8-(3-methoxypropoxy)-2-oxo-1,2,5,6-tetrahydrobenzo[h]quinoline-3-carboxylic acid], for which the EC50 turned out to be 4600 nM.

For the compound `COCCCOc1cc2c(cc1OC)-c1[nH]c(=O)c(C(=O)O)c(OCCO)c1C(C(C)C)C2` (stereo not shown) [Example 90, 4-(2-Hydroxyethoxy)-5-isopropyl-9-methoxy-8-(3-methoxypropoxy)-2-oxo-1,2,5,6-tetrahydrobenzo[h]quinoline-3-carboxylicacid], the EC50 came out at 11000 nM.

On to `CCOc1c2c([nH]c(=O)c1C(=O)O)-c1cc(OC)c(OCCCOC)cc1CC2C(C)C` (stereo not shown) [Example 91, 4-Ethoxy-5-isopropyl-9-methoxy-8-(3-methoxypropoxy)-2-oxo-1,2,5,6-tetrahydrobenzo[h]quinoline-3-carboxylicacid], for which the EC50 is 1700 nM.

Take `COCCCOc1cc2c(nc1OC)-c1[nH]c(=O)c(C(=O)O)c(OC)c1C(C(C)(C)C)C2` (stereo not shown) [Example 92, 5-(tert-Butyl)-4,9-dimethoxy-8-(3-methoxypropoxy)-2-oxo-1,2,5,6-tetrahydro-1,10-phenanthroline-3-carboxylic acid]: the EC50 amounted to 640 nM.

`COCCCOc1cc2c(nc1C1CC1)-c1[nH]c(=O)c(C(=O)O)c(O)c1C(C(C)C)CO2` (stereo not shown) [Example 93, 2-Cyclopropyl-8-hydroxy-7-isopropyl-3-(3-methoxypropoxy)-10-oxo-6,7,10,11-tetrahydrooxepino[3,2-b:4,5-b′]dipyridine-9-carboxylic acid]: the EC50 was 120 nM.

`COCCCOc1cc2c(cc1C1CCOCC1)-c1[nH]c(=O)c(C(=O)O)c(O)c1[C@H](C(C)C)CO2` [Example 94, (S)-4-Hydroxy-5-isopropyl-9-(3-methoxypropoxy)-2-oxo-10-(tetrahydro-2H-pyran-4-yl)-1,2,5,6-tetrahydrobenzo[2,3]oxepino[4,5-b]pyridine-3-carboxylic acid]: the EC50 was 730 nM.
